Experimental data published in the NIST ThermoML archive (doi:10.1021/je800242n).
“And” between values parts separate entries of the source, which are not always exact repeats. Identical values can stand only once.

Settings: Crystal

[F][Zn][F] [zinc fluoride]
Settings | vapor or sublimation pressure
846 K | 1.2e-05 kPa
852 K | 1.2e-05 kPa
853 K | 1.23e-05 kPa
854 K | 1.78e-05 kPa
859 K | 1.23e-05 kPa
865 K | 2.4e-05 kPa
867 K | 1.82e-05 kPa and 2.4e-05 kPa
871 K | 2.45e-05 kPa
875 K | 2.45e-05 kPa
876 K | 3.55e-05 kPa and 4.79e-05 kPa
880 K | 3.63e-05 kPa and 3.55e-05 kPa
883 K | 4.57e-05 kPa and 3.63e-05 kPa
885 K | 4.57e-05 kPa
886 K | 3.63e-05 kPa
887 K | 4.57e-05 kPa and 6.03e-05 kPa and 4.9e-05 kPa
888 K | 4.57e-05 kPa
889 K | 7.24e-05 kPa
891 K | 6.03e-05 kPa
893 K | 6.17e-05 kPa
895 K | 6.76e-05 kPa and 4.9e-05 kPa
896 K | 6.76e-05 kPa and 6.17e-05 kPa
898 K | 6.76e-05 kPa and 8.32e-05 kPa and 7.41e-05 kPa
900 K | 6.76e-05 kPa
902 K | 8.51e-05 kPa and 8.32e-05 kPa
903 K | 9.12e-05 kPa and 0.000107 kPa
904 K | 7.41e-05 kPa
905 K | 7.41e-05 kPa
906 K | 9.12e-05 kPa and 0.000107 kPa
909 K | 0.000102 kPa and 9.77e-05 kPa
910 K | 0.00012 kPa
911 K | 0.000115 kPa
912 K | 9.77e-05 kPa
913 K | 0.000138 kPa and 0.000123 kPa
914 K | 0.000155 kPa and 0.00011 kPa
916 K | 0.000158 kPa and 0.000166 kPa
919 K | 0.000158 kPa and 0.000135 kPa
920 K | 0.000166 kPa
921 K | 0.000182 kPa
922 K | 0.000135 kPa
923 K | 0.000204 kPa and 0.000148 kPa
924 K | 0.000204 kPa
925 K | 0.000182 kPa
926 K | 0.000229 kPa
928 K | 0.000204 kPa and 0.000251 kPa
930 K | 0.000251 kPa and 0.000195 kPa
932 K | 0.000263 kPa
933 K | 0.000195 kPa and 0.000275 kPa
934 K | 0.000295 kPa and 0.000257 kPa and 0.000209 kPa
937 K | 0.000316 kPa
938 K | 0.000372 kPa
939 K | 0.000316 kPa
940 K | 0.000339 kPa
941 K | 0.000372 kPa and 0.000282 kPa
942 K | 0.000282 kPa and 0.000355 kPa
943 K | 0.000282 kPa
945 K | 0.000407 kPa
946 K | 0.00038 kPa
948 K | 0.000437 kPa
950 K | 0.000479 kPa and 0.000513 kPa
951 K | 0.000479 kPa and 0.000389 kPa
952 K | 0.000363 kPa and 0.000501 kPa
955 K | 0.000575 kPa
956 K | 0.000513 kPa and 0.000417 kPa
958 K | 0.000575 kPa
959 K | 0.000589 kPa
960 K | 0.000661 kPa
961 K | 0.000661 kPa and 0.000525 kPa
962 K | 0.000692 kPa
963 K | 0.000525 kPa and 0.000692 kPa
965 K | 0.000589 kPa
966 K | 0.000794 kPa and 0.000692 kPa
968 K | 0.000759 kPa
969 K | 0.000851 kPa and 0.000912 kPa
970 K | 0.000871 kPa and 0.000708 kPa
972 K | 0.000912 kPa
973 K | 0.000955 kPa
974 K | 0.000741 kPa
975 K | 0.000912 kPa and 0.000813 kPa
976 K | 0.00107 kPa
978 K | 0.00105 kPa and 0.00123 kPa
979 K | 0.00115 kPa and 0.000933 kPa
980 K | 0.00115 kPa
982 K | 0.0012 kPa
983 K | 0.000977 kPa and 0.00132 kPa
984 K | 0.00105 kPa
986 K | 0.00145 kPa and 0.00126 kPa
988 K | 0.00148 kPa and 0.00158 kPa
989 K | 0.00148 kPa and 0.00138 kPa and 0.00126 kPa
991 K | 0.00158 kPa
993 K | 0.00132 kPa and 0.00135 kPa
994 K | 0.00178 kPa
996 K | 0.00191 kPa and 0.00195 kPa
997 K | 0.00166 kPa
998 K | 0.00182 kPa and 0.00214 kPa
999 K | 0.00195 kPa and 0.00166 kPa
1001 K | 0.00209 kPa
1003 K | 0.00178 kPa
1004 K | 0.00174 kPa and 0.00245 kPa
1005 K | 0.00251 kPa
1006 K | 0.00245 kPa
1007 K | 0.00234 kPa
1008 K | 0.00219 kPa
1009 K | 0.00219 kPa and 0.00295 kPa
1010 K | 0.00257 kPa
1011 K | 0.00269 kPa
1013 K | 0.00229 kPa and 0.00316 kPa and 0.00234 kPa
1016 K | 0.00347 kPa
1017 K | 0.00324 kPa and 0.00295 kPa
1019 K | 0.00295 kPa
1020 K | 0.00295 kPa
1021 K | 0.00347 kPa and 0.00339 kPa
1022 K | 0.00398 kPa and 0.00302 kPa
1023 K | 0.00309 kPa
1027 K | 0.00407 kPa and 0.0038 kPa
1031 K | 0.00447 kPa and 0.00457 kPa and 0.00537 kPa
1035 K | 0.00427 kPa
1036 K | 0.00525 kPa
1037 K | 0.0049 kPa
1039 K | 0.00562 kPa
1040 K | 0.00692 kPa
1041 K | 0.00562 kPa
1046 K | 0.00676 kPa and 0.00575 kPa
1047 K | 0.00631 kPa

[F][Cd][F] [cadmium difluoride]
Settings | vapor or sublimation pressure
962 K | 1.26e-05 kPa
968 K | 1.35e-05 kPa
973 K | 1.58e-05 kPa
977 K | 2e-05 kPa
978 K | 2.51e-05 kPa
983 K | 2.51e-05 kPa
984 K | 2.69e-05 kPa
988 K | 3.39e-05 kPa
992 K | 3.39e-05 kPa
993 K | 3.47e-05 kPa
1000 K | 5.01e-05 kPa
1001 K | 4.68e-05 kPa
1002 K | 4.57e-05 kPa
1003 K | 5.75e-05 kPa
1004 K | 5.01e-05 kPa
1009 K | 6.76e-05 kPa
1012 K | 7.94e-05 kPa
1013 K | 6.92e-05 kPa and 6.76e-05 kPa and 7.59e-05 kPa
1014 K | 5.75e-05 kPa
1016 K | 6.76e-05 kPa
1017 K | 5.75e-05 kPa and 9.12e-05 kPa
1018 K | 8.51e-05 kPa
1021 K | 0.000102 kPa
1022 K | 8.71e-05 kPa and 0.000115 kPa
1025 K | 6.76e-05 kPa and 0.000107 kPa
1026 K | 7.94e-05 kPa
1027 K | 9.12e-05 kPa
1028 K | 0.000117 kPa
1030 K | 0.000126 kPa
1031 K | 0.000135 kPa
1032 K | 9.12e-05 kPa and 0.000102 kPa and 0.00012 kPa
1033 K | 9.12e-05 kPa and 0.000158 kPa
1036 K | 0.000102 kPa
1038 K | 0.000115 kPa and 0.000162 kPa
1040 K | 0.000135 kPa and 0.000186 kPa
1042 K | 0.000162 kPa and 0.000182 kPa
1043 K | 0.000186 kPa [middle of 4 runs]
1046 K | 0.000138 kPa and 0.000158 kPa
1048 K | 0.000158 kPa
1049 K | 0.000229 kPa
1050 K | 0.000182 kPa
1051 K | 0.000214 kPa
1052 K | 0.000251 kPa and 0.000295 kPa
1053 K | 0.000251 kPa
1054 K | 0.000204 kPa and 0.000263 kPa
1055 K | 0.000182 kPa and 0.000204 kPa
1057 K | 0.000204 kPa
1059 K | 0.000229 kPa
1060 K | 0.000275 kPa
1061 K | 0.000309 kPa
1062 K | 0.000389 kPa
1064 K | 0.000275 kPa and 0.000339 kPa
1066 K | 0.000275 kPa
1068 K | 0.000295 kPa and 0.000316 kPa and 0.000275 kPa
1069 K | 0.000407 kPa and 0.000389 kPa
1070 K | 0.000355 kPa
1071 K | 0.000339 kPa
1073 K | 0.000398 kPa
1074 K | 0.000525 kPa
1075 K | 0.000389 kPa and 0.000479 kPa
1077 K | 0.000363 kPa
1078 K | 0.000407 kPa
1079 K | 0.000457 kPa [middle of 4 runs]
1080 K | 0.000501 kPa
1082 K | 0.000457 kPa
1084 K | 0.000537 kPa and 0.000676 kPa
1086 K | 0.000676 kPa
1087 K | 0.000501 kPa
1088 K | 0.00055 kPa
1089 K | 0.000457 kPa and 0.000589 kPa
1090 K | 0.00055 kPa
1091 K | 0.000708 kPa
1093 K | 0.000617 kPa
1095 K | 0.000933 kPa
1096 K | 0.000631 kPa
1097 K | 0.000631 kPa and 0.000724 kPa and 0.000912 kPa
1098 K | 0.000724 kPa and 0.000575 kPa and 0.000741 kPa
1101 K | 0.000912 kPa
1102 K | 0.000724 kPa
1103 K | 0.000933 kPa
1104 K | 0.000813 kPa
1105 K | 0.000871 kPa and 0.0012 kPa
1107 K | 0.000912 kPa and 0.000813 kPa and 0.000676 kPa
1108 K | 0.0012 kPa
1110 K | 0.00117 kPa
1111 K | 0.00117 kPa
1114 K | 0.001 kPa and 0.0011 kPa and 0.00105 kPa
1115 K | 0.00135 kPa
1116 K | 0.00151 kPa
1117 K | 0.00117 kPa and 0.00102 kPa and 0.00115 kPa
1118 K | 0.0011 kPa and 0.001 kPa and 0.00158 kPa
1120 K | 0.0017 kPa
1121 K | 0.00162 kPa
1123 K | 0.00145 kPa
1124 K | 0.00115 kPa
1125 K | 0.00132 kPa and 0.00138 kPa
1126 K | 0.00129 kPa
1127 K | 0.00145 kPa and 0.00129 kPa and 0.00191 kPa
1129 K | 0.00141 kPa and 0.002 kPa and 0.00195 kPa
1134 K | 0.00174 kPa
1135 K | 0.00195 kPa
1136 K | 0.00178 kPa and 0.00166 kPa
1137 K | 0.00245 kPa
1138 K | 0.00245 kPa
1139 K | 0.00182 kPa
1145 K | 0.00224 kPa
1147 K | 0.00229 kPa
1149 K | 0.00229 kPa
